Source: US12583825B2, “Benzo[h]quinazolin-4-amine and thieno[3,2-h]quinazolin-4-amine derivatives for the treatment of cancer” (Redona Therapeutics, Inc., priority 2020, dated 2026)
“Also recorded” adds a separate entry of the source.

Columns and labels:
recombinant human CLK3 = target: T1, recombinant human CLK3 (Homo sapiens, UniProt P49761); experiment: CLK3 kinase assay (LANCE Ultra); type: biochemical; conditions: 0.5 nM CLK3, 300 μM ATP, 3 hours at 30° C.
T1 construct: purchased Thermo Fisher Scientific PV3826
T1 sequence (P49761 whole entry): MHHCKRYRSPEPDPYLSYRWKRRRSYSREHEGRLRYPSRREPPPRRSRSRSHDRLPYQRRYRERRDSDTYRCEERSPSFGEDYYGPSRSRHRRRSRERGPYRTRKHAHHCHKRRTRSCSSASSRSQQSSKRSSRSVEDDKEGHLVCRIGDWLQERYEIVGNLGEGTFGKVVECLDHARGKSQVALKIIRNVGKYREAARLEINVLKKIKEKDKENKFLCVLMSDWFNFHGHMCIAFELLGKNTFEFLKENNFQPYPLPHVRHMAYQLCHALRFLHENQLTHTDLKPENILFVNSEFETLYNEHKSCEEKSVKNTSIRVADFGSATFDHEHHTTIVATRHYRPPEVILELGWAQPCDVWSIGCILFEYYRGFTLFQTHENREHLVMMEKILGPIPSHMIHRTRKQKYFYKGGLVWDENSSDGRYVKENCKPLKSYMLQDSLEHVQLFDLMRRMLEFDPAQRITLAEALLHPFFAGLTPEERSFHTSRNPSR
In short: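 Recombinant human CLK3 (0.5 nM) phosphorylating ULight-CREBtide (50 nM) with 300 μM ATP for 3 h at 30 °C; stopped with EDTA, detected by LANCE Ultra TR-FRET using Eu-anti-phospho-CREB antibody (2 nM, 1 h). IC50 from sigmoidal 4-parameter fit.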

[1] = system: CAL-51 triple-negative breast cancer xenograft; experiment: CAL-51 triple-negative breast cancer mouse xenograft model; conditions: for tumor volumes smaller compared to the vehicle-treated group: day 21, female NCG mice; for tumor volumes compared with vehicle-treated animals (one-way ANOVA, P<0.05): day 21
Procedure: A pair match was performed when tumors reached an average volume of 100-150 mm^3 to distribute animals into treatment groups (n=8/group), and treatment of the respective groups was initiated. Tumor volumes (expressed in mm^3) were measured twice weekly using a caliper on days 1, 3, 7, 10, 14, 17 and 21 of the treatment period.
To this end, the CAL-51 triple-negative breast cancer xenograft model was used, in which the tumor cells are injected subcutaneously into the flanks of immunodeficient NCG mice (lack functional/mature T, B, and NK cells, and have reduced macrophage and dendritic cell function). […] CAL-51 cells were harvested when they were growing exponentially.
Female NCG mice were used for the study at 8-12 weeks of age (Charles River Laboratories). Mice were inoculated subcutaneously in the flank region with 1×10^7 CAL-51 cells in 50% Matrigel™ in a final injection volume of 0.1 mL/mouse. Once tumors reached an average size of 100-150 mm^3, a pair match was carried out to distribute mice to the different treatment groups.
Tumor volumes (expressed in mm^3) were measured in two dimensions using a caliper on days 1, 3, 7, 10, 14, 17 and 21 of the treatment period. […] Results represent mean values±SEM. Tumor volumes at the conclusion of the study were analyzed by one-way ANOVA analysis to compare treatment groups to the vehicle group. The significance level was set to P<0.05. Calculations were conducted using GraphPad™ Prism version 9.

[2] = system: phospho-SRSF6 levels in MDA-MB-468 cells; experiment: Inhibition of phospho-SRSF6 levels in MDA-MB-468 cells (Western blot); type: cell-based; conditions: Homo sapiens, 100 nM, 2 hours, normalized by GAPDH, read-out: % Intensity of p-SRSF6 signal at 100 nM compared to DMSO control
Procedure: FIG. 1: FIG. 1 provides a representative Western blot showing reduction of phosphorylated-SRSF6 (P-SRSF6) in MDA-MB 468 cells by compounds of the invention. GAPDH was probed for by Western blotting to control for equal protein loading and for normalization of samples. The numbers below the blots show percent intensity of P-SRSF6 signal at 100 nM compared to DMSO control.
Assessment of Inhibition of Phospho-SRSF6 Levels in MDA-MB-468 Cells
MDA-MB-468 cells (ATCC, HTB-132) were cultured in DMEM (BioConcept cat. no. 1-26F03) supplemented with 10% FBS (Sigma cat. no. F9665), 1% Na-pyruvate (Sigma cat. no. S8636), 1% Penicillin-Streptomycin (BioConcept cat. no. 4-01F00-H). When cells reached a density of 70% in 6-well plates (TPP cat. no. 92006), they were treated either with the test compound vehicle DMSO, or with experimental compounds at a final concentration of 100 nM for 2 hours. Thereafter, the culture medium was removed and cells were collected by scraping in Lysis Buffer (20 mM Tris HCl pH7.5, 150 mM NaCl, 1 mM EGTA, 1 mM EDTA, 1% Triton and 1% NP-40) containing protease and phosphatase inhibitors (Halt™ Protease&Phosphatase inhibitor cocktail 100× ThermoScientific cat. no. 1861281) and 1 mM PMSF (Fluka cat. no. 93482). Cleared lysates were stored in Eppendorf tubes at −80° C. until use, and protein concentration in lysates was determined using Pierce 660 nm Protein Assay Reagent (ThermoScientific cat. no. 22660). 20 μg proteins were diluted in 4× Laemmli buffer (Biorad cat. no. 161-0747) containing 10% beta-mercaptoethanol, separated by SDS-PAGE using 10% gels, and then transferred to PVDF membranes (Trans Blot Turbo Transfer Pack BioRad cat. no. 1704156) by Trans-Blot® Turbo™ System semidry blotting methodology (BioRad). Primary antibodies were incubated in TBS-0.1% Tween-20 buffer containing 3% BSA Bovine Albumin Fr.V (Millipore cat. no. 81-053-3) overnight at 4° C. The following primary antibodies were used: Mouse anti-phosphoepitope SR proteins clone 1H4 (Millipore cat. no. MABE50) diluted 1:5000, and rabbit anti-GAPDH clone 14C10 (Cell Signaling cat. no. 2118S) to control for equal protein loading, diluted 1:2000. HRP-conjugated secondary antibodies were incubated one hour at room temperature diluted 1:5000 in TBS-0.1% Tween-20 buffer containing 5% nonfat-dried bovine milk (Sigma cat. no. M7409). The following secondary antibodies were used: Goat anti-mouse-HRP (Jackson cat. no. 115-035-146) and goat anti-rabbit-HRP (Jackson cat. no. 111-035-144). Membranes were incubated with ECL Prime Western Blot Detection Reagent (Amersham cat. no. RPN2236) to detect specific signals using Fusion SOLO S device (Vilber Lourmat). Pixel intensity of the phopsho-SRSF6 (MW 55 kDa in reference to markers) and GAPDH (MW 37 kDa) signals in the Western blots were determined using Evolution-Capt image analysis software (v17.01, Vilber Lourmat). DMSO control was used to set the phospho-SRSF6 signal at baseline, phospho-SRSF6 signals for each sample were normalized by the respective GAPDH signals and percent intensity of P-SRSF6 signal at 100 nM compound compared to DMSO control was calculated (see FIG. 1).

MDA-MB-231 cells = experiment: MDA-MB-231 proliferation assay; type: cell-based; conditions: Homo sapiens, 72 hours, YO-PRO-1 readout
In short: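 Cells seeded at 750/well in DMEM with 10% FBS, treated 72 h at 37 °C, 0.5% DMSO final. Cell number read by YO-PRO-1 fluorescence (485/530 nm), normalised to DMSO (100%) and time-of-addition cells (0%); 4-parameter logistic fit with maximum fixed at 100%.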

SMILES | IC50 (recombinant human CLK3) [nM] | GI50 (MDA-MB-231 cells) [nM] | tumor volumes smaller compared to the vehicle-treated group ([1]; 25 mg/kg daily orally) [%] | tumor volumes smaller compared to the vehicle-treated group ([1]; 60 mg/kg three times a week orally) [%] | tumor volumes compared with vehicle-treated animals (one-way ANOVA, P<0.05) ([1]; 60 mg/kg thrice weekly) | tumor volumes smaller compared to the vehicle-treated group ([1]; 85 mg/kg twice a week orally) [%] | tumor volumes compared with vehicle-treated animals (one-way ANOVA, P<0.05) ([1]; 85 mg/kg twice weekly) | tolerability, as evidenced by body weight assessments ([1]; oral 25, 60 or 85 mg/kg schedules, days 1-21, female NCG mice) | activity at 0.1 µM [2] [%]
COCCO/N=C1\c2cc(O[C@H]3CC[C@H](N)CC3)ccc2-c2ncnc(N)c2C1(C)C [Example 29, (6Z)-8-(trans-4-aminocyclohexoxy)-6-(2-methoxyethoxyimino)-5,5-dimethyl-benzo[h]quinazolin-4-amine] | 15.4 | 378 | 41.8 | 42.7 | significant; also recorded: significantly smaller | 46.8 | significant; also recorded: significantly smaller | well tolerated | 12
CC1(C)/C(=N/OCCO)c2cc(O[C@H]3CC[C@H](N)CC3)ccc2-c2ncnc(N)c21 [Example 19, 2-[(Z)-[4-amino-8-(trans-4-aminocyclohexoxy)-5,5-dimethyl-benzo[h]quinazolin-6-ylidene]amino]oxyethanol] | 20.2 | 445 |  |  |  |  |  |  | 25
C[C@H](O)CO/N=C1\c2cc(O[C@H]3CC[C@H](N)CC3)ccc2-c2ncnc(N)c2C1(C)C [Example 79, (2S)-1-[(Z)-[4-amino-8-(trans-4-aminocyclohexoxy)-5,5-dimethyl-benzo[h]quinazolin-6-ylidene]amino]oxypropan-2-ol] | 40.7 | 971 |  |  |  |  |  |  | 34
CO/N=C1\c2cc(O[C@H]3CC[C@H](N)CC3)ccc2-c2ncnc(N)c2C1(C)C [Example 1, (6Z)-8-(trans-4-aminocyclohexoxy)-6-methoxyimino-5,5-dimethyl-benzo[h]quinazolin-4-amine] | 9.1 | 407 |  |  |  |  |  |  | 19
COCCN1C[C@@H](CO/N=C2\c3cc(Br)ccc3-c3ncnc(N)c3C2(C)C)OC1=O [Example 90, (5S)-5-[[(Z)-(4-amino-8-bromo-5,5-dimethyl-benzo[h]quinazolin-6-ylidene)amino]oxymethyl]-3-(2-methoxyethyl)oxazolidin-2-one] | 9.37 | 863 |  |  |  |  |  |  | 29
COc1ccc2c(c1)/C(=N\OCCCC#N)C(C)(C)c1c(N)ncnc1-2 [Example 6, 4-[(Z)-(4-amino-8-methoxy-5,5-dimethyl-benzo[h]quinazolin-6-ylidene)amino]oxybutanenitrile] | 32.1 | > 2000 |  |  |  |  |  |  | 41
CO/N=C1\c2cc(OC)ccc2-c2ncnc(N)c2C1(C)C [Example 40, (6Z)-8-methoxy-6-methoxyimino-5,5-dimethyl-benzo[h]quinazolin-4-amine] | 21.7 | > 2000 |  |  |  |  |  |  | 45
CC1(C)/C(=N/OCCO)c2cc(O[C@H]3CC[C@@H](N)CC3)ccc2-c2ncnc(N)c21 [Example 87, 2-[(Z)-[4-amino-8-(cis-4-aminocyclohexoxy)-5,5-dimethyl-benzo[h]quinazolin-6-ylidene]amino]oxyethanol] | 18.7 | 255 |  |  |  |  |  |  | 10
COCCO/N=C1\c2cc(O[C@H]3CC[C@@H](N)CC3)ccc2-c2ncnc(N)c2C1(C)C [Example 82, (6Z)-8-(cis-4-aminocyclohexoxy)-6-(2-methoxyethoxyimino)-5,5-dimethyl-benzo[h]quinazolin-4-amine] | 9.7 | 98.5 |  |  |  |  |  |  | 15

Compounds with a lower IC50 (recombinant human CLK3), results first:

IC50 (recombinant human CLK3) [nM] | GI50 (MDA-MB-231 cells) [nM] | SMILES | tumor volumes smaller compared to the vehicle-treated group ([1]; 25 mg/kg daily orally) [%] | tumor volumes smaller compared to the vehicle-treated group ([1]; 60 mg/kg three times a week orally) [%] | tumor volumes compared with vehicle-treated animals (one-way ANOVA, P<0.05) ([1]; 60 mg/kg thrice weekly) | tumor volumes smaller compared to the vehicle-treated group ([1]; 85 mg/kg twice a week orally) [%] | tumor volumes compared with vehicle-treated animals (one-way ANOVA, P<0.05) ([1]; 85 mg/kg twice weekly) | tolerability, as evidenced by body weight assessments ([1]; oral 25, 60 or 85 mg/kg schedules, days 1-21, female NCG mice) | activity at 0.1 µM [2] [%]
4.16 | > 2000 | CC1(C)/C(=N/OC[C@@H]2CNC(=O)O2)c2cc(O[C@H]3CC[C@H](N)CC3)ccc2-c2ncnc(N)c21 [Example 38, (5S)-5-[[(Z)-[4-amino-8-(trans-4-aminocyclohexoxy)-5,5-dimethyl-benzo[h]quinazolin-6-ylidene]amino]oxymethyl]oxazolidin-2-one] |  |  |  |  |  |  | 48
4.8 | 255 | CO/N=C1\c2cc(C[C@H]3CC[C@H](N)CC3)ccc2-c2ncnc(N)c2C1(C)C [Example 74, (6Z)-8-[(trans-4-aminocyclohexyl)methyl]-6-methoxyimino-5,5-dimethyl-benzo[h]quinazolin-4-amine] |  |  |  |  |  |  | 28
2.9 | 10.1 | N#CCCO/N=C1\c2cc(O[C@H]3CC[C@H](N)CC3)ccc2-c2ncnc(N)c2C12CCCC2 [Example 102, 3-[(Z)-[4-amino-8-(trans-4-aminocyclohexoxy)spiro[benzo[h]quinazoline-5,1′-cyclopentane]-6-ylidene]amino]oxypropanenitrile] |  |  |  |  |  |  | 7
1.7 | 158 | CC1(C)/C(=N/OC[C@@H]2CN(CCO)C(=O)O2)c2cc(I)ccc2-c2ncnc(N)c21 [Example 97, (5S)-5-[[(Z)-(4-amino-8-iodo-5,5-dimethyl-benzo[h]quinazolin-6-ylidene)amino]oxymethyl]-3-(2-hydroxyethyl)oxazolidin-2-one] |  |  |  |  |  |  | 21
5.1 | 459 | CC1(C)/C(=N/OC[C@@H]2CN(CCO)C(=O)O2)c2cc(Br)ccc2-c2ncnc(N)c21 [Example 91, (5S)-5-[[(Z)-(4-amino-8-bromo-5,5-dimethyl-benzo[h]quinazolin-6-ylidene)amino]oxymethyl]-3-(2-hydroxyethyl)oxazolidin-2-one] |  |  |  |  |  |  | 15
5.8 | 27.6 | COCCO/N=C1\c2cc(O[C@H]3CC[C@H](N)CC3)ccc2-c2ncnc(N)c2C12CCCC2 [Example 99, (6Z)-8-(trans-4-aminocyclohexoxy)-6-(2-methoxyethoxyimino)spiro[benzo[h]quinazoline-5,1′-cyclopentane]-4-amine] |  |  |  |  |  |  | 17
4.3 | 1200 | COc1ccc2c(c1)/C(=N\OC[C@@H]1CNC(=O)O1)C(C)(C)c1c(N)ncnc1-2 [Example 13, (5S)-5-[[(Z)-(4-amino-8-methoxy-5,5-dimethyl-benzo[h]quinazolin-6-ylidene)amino]oxymethyl]oxazolidin-2-one] |  |  |  |  |  |  | 28
6.2 | 240 | CC1(C)/C(=N/OC[C@@H]2CNC(=O)O2)c2cc(I)ccc2-c2ncnc(N)c21 [Example 93, (5S)-5-[[(Z)-(4-amino-8-iodo-5,5-dimethyl-benzo[h]quinazolin-6-ylidene)amino]oxymethyl]oxazolidin-2-one] |  |  |  |  |  |  | 19
